Patent US10030016B2 (Sunesis Pharmaceuticals, Inc., priority 2009, dated 2018)
Structures can show the parent of a compound that is named as a salt. Where two headings read alike, the source gives them in different places.

Key:
[1] = tested on: phospho-akt (Thr308) in PC-3 cells; assay: Inhibition of phospho-akt (Thr308) in PC-3 cells, MSD phospho-akt 308 ELISA kit; format: cell-based; details: 2 hours, no serum, read-out: EC50
How it was run: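 Phospho-Akt (Thr308) levels were measured by MSD ELISA after PC-3 cells received compound for 2 hours in serum-free medium. Controls: DMSO (high), 5 μM wortmannin (low).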

PDK1 = PDK1 (Homo sapiens (Human), UniProt O15530); assay: PDK1 kinase assay (coupled PDK1/AKT/FAM-crosstide assay, IMAP fluorescence polarization); format: biochemical
Experimental: A PDK1 kinase assay was performed as follows. PDK1 (amino acids 51-359) and AKT2 (amino acids 140-467 fused to PIFtide, amino acids […]) were expressed as N-terminally tagged GST fusion proteins in insect cells and purified to homogeneity. Enzyme activity was determined in a coupled PDK1/AKT/FAM-crosstide assay and phosphorylation of FAM-crosstide was determined by standard IMAP protocol (Molecular Devices). For inhibition studies, compounds were titrated 4-fold in DMSO and diluted 40-fold into assay buffer (10 mM Tris HCl pH7.2; 10 mM MgCl2; 0.01% Triton X-100; 1 mM DTT) containing PDK1, AKT2, and FAM-crosstide (final concentrations: 0.75 nM PDK1, 10 nM unphosphorylated AKT2, and 100 nM crosstide substrate). The kinase reaction was initiated by adding ATP to a final concentration of 40 μM of PDK1 and incubated at 25° C. for 30 min. To detect assay product, the kinase reaction was combined with Progressive Binding Solution (1:600 Progressive Binding Reagent, 50% Buffer A, 50% Buffer B, Molecular Devices) in a 1:3 ratio. The mixture was incubated for 2 hours at 25° C. and the plate was scanned on an Analyst AD with excitation at 485 nm and emission at 530 nm. The fluorescence polarization value “P” is defined by the equation below. The value “mP” is generated by multiplying the P value for each reaction well by a factor of 1000. The value “ΔmP” for each well is the mP value for that well minus the mP value for the average negative control. P=(Fpar−Fperp)/(Fpar+Fperp) Eq.:
Where “par” is fluorescence intensity parallel to the excitation plane; and “perp” is fluorescence intensity perpendicular to the excitation plane. ΔmP values were plotted as a function of compound concentration and the data were analyzed with a 4-parameter fit using GraphPad Prism software.

[2] = Homo sapiens, inhibition of P308 Akt in PC-3 cells, MSD
[3] = inhibition of phospo-PDK1 in vitro
[4] = Homo sapiens, inhibition of P308 Akt in PC-3 cells using MSD
[5] = Homo sapiens, PC-3, 2 h, inhibition of P308 Akt in PC-3 cells using MSD

PDK1, sequence (O15530 51-359): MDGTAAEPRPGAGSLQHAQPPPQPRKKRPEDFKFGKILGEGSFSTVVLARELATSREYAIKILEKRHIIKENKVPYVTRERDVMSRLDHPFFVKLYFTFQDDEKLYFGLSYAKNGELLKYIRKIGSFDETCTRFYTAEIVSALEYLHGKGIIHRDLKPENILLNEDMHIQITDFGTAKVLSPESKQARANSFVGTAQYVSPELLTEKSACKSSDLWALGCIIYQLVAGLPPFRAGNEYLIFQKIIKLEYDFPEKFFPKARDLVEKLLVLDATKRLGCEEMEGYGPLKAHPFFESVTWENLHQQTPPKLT

SMILES | EC50 [1, 2] [µM] | IC50 (PDK1; [3]) [µM] | IC50 (PDK1; inhibition of PDK1 in vitro) [µM] | other results
O=C(NCc1ccc(F)c(F)c1)c1cccnc1NCc1ccc(-c2cnc3[nH]ncc3c2)cc1 [Example 2.35, 2-(4-(1H-pyrazolo[3,4-b]pyridin-5-yl)benzylamino)-N-(3,4-difluorobenzyl)nicotinamide] | < 1 | < 0.1 |  | 
Nc1cnc(-c2ccc(CNc3nccc4ncn(Cc5ccc(F)c(F)c5)c(=O)c34)cc2)cn1 [Example 381, 5-(4-(5-aminopyrazin-2-yl)benzylamino)-3-(3,4-difluorobenzyl)pyrido[4,3-d] pyrimidin-4(3H)-one] |  |  | < 0.1 | EC50 [1, 4]: 1 to 10 µM
Nc1ncnc2ccc(-c3ccc(CNc4nccnc4C(=O)NCc4cc(F)cc(F)c4)s3)cc12 [Example 3.76, 3-({[5-(4-aminoquinazolin-6-yl)thiophen-2-yl]methyl}amino)-N-(3,5-difluorobenzyl)pyrazine-2-carboxamide (TFA salt)] | < 1 | < 0.1 |  | 
Nc1n[nH]c2ncc(-c3ccc(CNc4nccc5ncn(Cc6ccc(F)c(F)c6)c(=O)c45)cc3)cc12 [Example 40, 5-(4-(3-amino-1H-pyrazolo[3,4-b]pyridin-5-yl)benzylamino)-3-(3,4-difluorobenzyl)pyrido[4,3-d]pyrimidin-4(3H)-one] | < 1 | < 0.1 |  | 
C[C@H](NC(=O)c1cc(C#N)cnc1NCc1ccc(-c2c[nH]c3ncnc(N)c23)cc1)c1ccc(F)cc1 [Example 41, 2-[4-(4-Amino-7H-pyrrolo[2,3-d]pyrimidin-5-yl)-benzylamino]-5-cyano-N-[(S)-1-(4-fluoro-phenyl)-ethyl]-nicotinamide] |  |  | < 0.1 | EC50 [1, 4]: < 1 µM
C[C@H](NC(=O)c1cccnc1NCc1ccc(-c2ccc3ncc4[nH]c(=O)n(C)c4c3c2)s1)c1ccc(F)cc1 [Example 2.16, (S)-N-(1-(4-fluorophenyl)ethyl)-2-(((5-(1-methyl-2-oxo-2,3-dihydro-1H-imidazo[4,5-c]quinolin-8-yl)thiophen-2-yl)methyl)amino) nicotinamide] | > 10 | > 5 |  | 
C[C@H](NC(=O)c1cn(-c2ccccc2)nc1NCc1ccc(-c2ccc3ncnc(N)c3c2)s1)c1ccc(F)c(F)c1 [Ex. 11.2] | > 10 | 0.1 to 1 |  | 
C[C@H](NC(=O)c1cc(C#N)cnc1NCc1ccc(-c2cnc(N)c(C(=O)NCCO)n2)cc1)c1ccc(F)cc1 [Example 215, (S)-3-amino-6-(4-((5-cyano-3-(1-(4-fluorophenyl)ethylcarbamoyl)pyridin-2-ylamino)methyl)phenyl)-N-(2-hydroxyethyl) pyrazine-2-carboxamide] |  |  | < 0.1 | EC50 [1, 4]: < 1 µM
C[C@H](NC(=O)c1cc(C#N)cnc1NCc1ccc(-c2ccc(C(N)=O)nc2)cc1)c1ccc(F)cc1 [Example 114, (S)-5-(4-((5-cyano-3-(1-(4-fluorophenyl)ethylcarbamoyl)pyridin-2-ylamino)methyl)phenyl)picolinamide] |  |  | 0.1 to 1 | EC50 [1, 5]: > 10 µM
C[C@H](NC(=O)c1cc(C#N)cnc1NCc1ccc(-c2cnc(N)c(N)c2)cc1)c1ccc(F)cc1 [Example 102, (S)-5-cyano-2-(4-(5,6-diaminopyridin-3-yl)benzylamino)-N-(1-(4-fluorophenyl)ethyl) nicotinamide] |  |  | < 0.1 | EC50 [1, 4]: 1 to 10 µM
Nc1ncnc2ccc(-c3ccc(CNc4ncccc4C(=O)Nc4ccc(C(F)(F)F)cc4)s3)cc12 [Example 3.26, 2-({[5-(4-aminoquinazolin-6-yl)thiophen-2-yl]methyl}amino)-N-[4-(trifluoromethyl)phenyl] pyridine-3-carboxamide (TFA salt)] | > 10 | > 5 |  | 
C[C@H](NC(=O)c1cc(C#N)cnc1NCc1ccc(-c2ccc3ncc4ncn(C)c4c3c2)s1)c1ccc(F)cc1 [Example 2.28, (S)-5-cyano-N-(1-(4-fluorophenyl)ethyl)-2-(((5-(1-methyl-1H-imidazo[4,5-c]quinolin-8-yl)thiophen-2-yl)methyl)amino) nicotinamide] | < 1 | < 0.1 |  | 
C[C@H](NC(=O)c1cccnc1NCc1ccc(-c2ccc3ncc4c(c3c2)n(C)c(=O)n4C)s1)c1ccc(F)cc1 [Example 2.17, (S)-2-(((5-(1,3-dimethyl-2-oxo-2,3-dihydro-1H-imidazo(4,5-c]quinolin-8-yl)thiophen-2-yl)methyl)amino)-N-(1-(4-fluoro-phenyl)ethyl)nicotinamide] | > 10 | > 5 |  | 
Nc1ncnc2ccc(-c3ccc(CNc4ncccc4C(=O)NCc4cccnc4)s3)cc12 [Example 3.37, 2-({[5-(4-aminoquinazolin-6-yl)thiophen-2-yl]methyl}amino)-N-(pyridin-3-ylmethyl) pyridine-3-carboxamide (TFA salt)] | 1 to 10 | 0.1 to 1 |  | 
C[C@H](NC(=O)c1cc(C#N)cnc1NCc1ccc(-c2c[nH]c3ncnc(N)c23)cc1F)c1ccc(F)cc1 [Example 99, (S)-2-(4-(4-amino-7H-pyrrolo[2,3-d]pyrimidin-5-yl)-2-fluorobenzylamino)-5-cyano-N-(1-(4-fluorophenyl)ethyl) nicotinamide] |  |  | < 0.1 | EC50 ([1]; inhibition of P308 Akt in PC-3 cells using MSD): < 1 µM
N#Cc1cnc(NCc2ccc(Oc3cccnc3N)cc2)c(C(=O)NCc2ccc(F)c(F)c2)c1 [Example 313, 2-(4-(2-aminopyridin-3-yloxy)benzylamino)-5-cyano-N-(3,4-difluorobenzyl) nicotinamide] |  |  | > 5 | EC50 [1, 4]: > 10 µM
Nc1ncnc2ccc(-c3ccc(CNc4ncc(C5COC5)cc4C(=O)NCc4ccc(F)c(F)c4)s3)cc12 [Ex. 8.8.4, 2-((5-(4-aminoquinazolin-6-yl)thiophen-2-yl)methylamino)-N-(3,4-difluorobenzyl)-5-(oxetan-3-yl)nicotinamide] | < 1 | < 0.1 |  | 
CCOc1ccnc(NCc2ccc(-c3ccc4ncnc(N)c4c3)s2)c1C(=O)NCc1ccc(F)c(F)c1 [Ex. 7.5, 2-({[5-(4-aminoquinazolin-6-yl)thiophen-2-yl]methyl}amino)-N-(3,4-difluorobenzyl)-4-ethoxypyridine-3-carboxamide] | > 10 | 0.1 to 1 |  | 
Nc1ncnc2ccc(-c3ccc(CNc4ncccc4C(=O)Nc4ccccc4Cl)s3)cc12 [Example 3.31, 2-({[5-(4-aminoquinazolin-6-yl)thiophen-2-yl]methyl}amino)-N-(2-chlorophenyl)pyridine-3-carboxamide (TFA salt)] | > 10 | > 5 |  | 
CN(C)C(=O)c1cnc(NCc2ccc(-c3ccc4ncnc(N)c4c3)s2)c(C(=O)NCc2ccc(F)c(F)c2)c1 [Example 7.24.4, 2-({[5-(4-aminoquinazolin-6-yl)thiophen-2-yl]methyl}amino)-N^3-(3,4-difluorobenzyl)-N^5,N^5-dimethylpyridine-3,5-dicarboxamide] | < 1 | < 0.1 |  | 
Cc1cc(CNc2ncc(C#N)cc2C(=O)N[C@@H](C)c2ccc(F)cc2)ccc1-c1cnc2[nH]nc(N)c2c1 [Example 408, 2-[4-(3-Amino-1H-pyrazolo [3,4-b]pyridin-5-yl)-3-methyl-benzylamino]-5-cyano-N-[(S)-1-(4-fluoro-phenyl)-ethyl]-nicotinamide] |  |  | < 0.1 | EC50 [1, 4]: 1 to 10 µM
C[C@H](NC(=O)c1cc(C#N)cnc1N[C@H](CC(=O)O)c1ccc(-c2c[nH]c3ncnc(N)c23)cc1)c1ccc(F)cc1 [Example 45, (R)-3-(4-(4-amino-7H-pyrrolo[2,3-d]pyrimidin-5-yl)phenyl)-3-(5-cyano-3-((S)-1-(4-fluorophenyl)ethylcarbamoyl)pyridin-2-ylamino)propanoic acid] |  |  | 0.1 to 1 | EC50 [1, 5]: > 10 µM
Nc1ncnc2ccc(-c3ccc(CNc4ncc(S(N)(=O)=O)cc4C(=O)NCc4ccc(F)c(F)c4)s3)cc12 [Example 8.7.2, 2-({[5-(4-aminoquinazolin-6-yl)thiophen-2-yl]methyl}amino)-N-(3,4-difluorobenzyl)-5-sulfamoylpyridine-3-carboxamide] | 1 to 10 | < 0.1 |  | 
Nc1ncnc2ccc(-c3ccc(CNc4ncccc4C(=O)NCc4cc(F)c(F)c(F)c4)s3)cc12 [Example 3.23, 2-({[5-(4-aminoquinazolin-6-yl)thiophen-2-yl]methyl}amino)-N-(3,4,5-trifluorobenzyl)pyridine-3-carboxamide (TFA salt)] | < 1 | < 0.1 |  | 
CCCS(=O)(=O)Nc1cnc(NCc2ccc(-c3ccc4ncnc(N)c4c3)s2)c(C(=O)NCc2ccc(F)c(F)c2)c1 [Example 8.6.4] | 1 to 10 | 1 to 5 |  | 
